From patent EP3820512B1, “IMMUNOMODULATING COMPOSITIONS COMPRISING OLIGOSACCHARIDE DERIVATIVES” (priority 2018, dated 2020)
“Also recorded” adds a separate entry of the source.

Columns and labels:
[1] = system: TLR7/8; assay: TLR7/8 modulation: cytokine ELISA in hPBMC, alone or with TLR7/8 ligand CL075; assay type: cell-based, human
From the text: Compound 8 modulates the TLR7/8 activities in a concentration dependent manner.

[2] = biological target: T1, TLR1/2 (Homo sapiens, UniProt O60603); assay: TLR1/2 modulation: IL-6 ELISA in hPBMC with TLR1/2 ligand Pam3CSK4; assay type: cell-based
T1 construct: endogenous in cells; host or cells: hPBMC (human peripheral blood monocytes)
T1 sequence (O60603 21-784): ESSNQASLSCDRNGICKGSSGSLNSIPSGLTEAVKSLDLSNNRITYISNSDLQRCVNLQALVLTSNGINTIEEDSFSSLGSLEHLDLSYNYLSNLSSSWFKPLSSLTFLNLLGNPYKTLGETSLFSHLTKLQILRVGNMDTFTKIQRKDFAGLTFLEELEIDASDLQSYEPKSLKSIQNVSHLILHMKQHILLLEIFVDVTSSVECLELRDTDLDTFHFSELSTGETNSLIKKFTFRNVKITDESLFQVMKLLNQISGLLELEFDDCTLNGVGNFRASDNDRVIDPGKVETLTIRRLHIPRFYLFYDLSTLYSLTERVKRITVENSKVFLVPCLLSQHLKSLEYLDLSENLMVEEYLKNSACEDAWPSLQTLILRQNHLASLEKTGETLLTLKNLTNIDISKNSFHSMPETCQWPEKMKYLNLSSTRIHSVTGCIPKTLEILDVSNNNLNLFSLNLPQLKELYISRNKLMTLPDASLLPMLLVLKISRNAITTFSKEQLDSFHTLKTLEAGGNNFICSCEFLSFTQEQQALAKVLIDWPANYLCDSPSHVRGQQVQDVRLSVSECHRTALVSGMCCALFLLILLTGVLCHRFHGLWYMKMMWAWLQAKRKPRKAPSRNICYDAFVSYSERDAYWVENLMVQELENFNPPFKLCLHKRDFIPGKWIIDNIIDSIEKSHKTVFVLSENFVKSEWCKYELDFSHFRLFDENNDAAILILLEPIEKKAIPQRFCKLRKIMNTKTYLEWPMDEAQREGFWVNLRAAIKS
From the text: Compound 8 modulates the TLR1/2 activities in a concentration dependent manner.

[3] = biological target: T2, TLR9 (Homo sapiens, UniProt Q9NR96); assay: TLR9 antagonism: IFN-α ELISA in hPBMC with TLR9 ligand ODN2216; assay type: cell-based; settings: in combination with ODN2216, hPBMC, 48h
T2 construct: endogenous in cells; host or cells: hPBMC (human peripheral blood monocytes)
T2 sequence (Q9NR96 26-1032): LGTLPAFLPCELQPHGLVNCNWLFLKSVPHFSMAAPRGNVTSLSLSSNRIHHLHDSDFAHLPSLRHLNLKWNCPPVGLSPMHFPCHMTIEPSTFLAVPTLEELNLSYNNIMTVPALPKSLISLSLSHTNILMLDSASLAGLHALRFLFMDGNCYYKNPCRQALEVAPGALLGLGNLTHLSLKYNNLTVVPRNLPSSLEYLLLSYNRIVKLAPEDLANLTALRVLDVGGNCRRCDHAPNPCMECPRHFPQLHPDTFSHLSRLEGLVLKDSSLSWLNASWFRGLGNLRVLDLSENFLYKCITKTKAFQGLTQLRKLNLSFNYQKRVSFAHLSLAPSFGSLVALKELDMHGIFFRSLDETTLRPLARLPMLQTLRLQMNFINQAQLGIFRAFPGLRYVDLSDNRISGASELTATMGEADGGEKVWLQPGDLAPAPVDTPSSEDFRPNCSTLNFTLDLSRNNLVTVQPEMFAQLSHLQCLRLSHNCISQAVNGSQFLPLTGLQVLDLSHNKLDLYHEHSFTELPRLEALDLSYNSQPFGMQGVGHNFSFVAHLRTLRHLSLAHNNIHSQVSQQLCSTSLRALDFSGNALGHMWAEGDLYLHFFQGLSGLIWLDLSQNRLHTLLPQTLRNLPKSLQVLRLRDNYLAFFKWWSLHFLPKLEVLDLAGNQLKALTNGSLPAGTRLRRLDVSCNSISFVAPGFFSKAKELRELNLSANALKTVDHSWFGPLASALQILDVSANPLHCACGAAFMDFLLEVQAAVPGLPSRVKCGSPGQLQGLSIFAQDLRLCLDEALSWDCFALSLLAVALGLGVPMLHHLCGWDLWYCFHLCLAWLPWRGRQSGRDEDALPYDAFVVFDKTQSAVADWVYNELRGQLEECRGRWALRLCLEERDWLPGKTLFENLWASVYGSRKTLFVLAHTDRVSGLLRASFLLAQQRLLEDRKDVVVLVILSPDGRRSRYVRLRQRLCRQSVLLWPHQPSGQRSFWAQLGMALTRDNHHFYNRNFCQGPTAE
Experimental: Compound 8 antagonizes the TLR9 activities and downregulates the production of IFN-α in combination with TLR9 ligand ODN2216 in hPBMC after 48h of treatment as detected by ELISA (FIG. 11).

[4] = system: hPBMC; assay: Cytotoxicity in hPBMC, MTT cell proliferation kit; assay type: cell-based, human; settings: 0.1, 1.0, 10, 100 and 1000 µM, 24h
Experimental: The cells were treated with compounds and incubated for 24h. Cell viability was assessed using MTT cell proliferation kit (Promega).

[5] = system: HUVECs; assay: Cytotoxicity in HUVECs, MTT cell proliferation kit; assay type: cell-based, human; settings: 100 µM, 24h
Experimental: Selected TLR2/4 antagonist compounds 2, 6, 7, 8, 14, 17 and 32 were evaluated for cytotoxicity in HUVECs at 100 µM concentration. The cells were treated with compounds and incubated for 24h. Cell viability was assessed using MTT cell proliferation kit (Promega). All the compounds were not toxic to HUVECs (FIG. 15).

[6] = system: VEGF induced tube formation in HUVECs; assay: Anti-angiogenic activity, Tube Formation kit, VEGF induced; assay type: cell-based, human; settings: VEGF 100ng/mL
Experimental: Selected TLR2/4 antagonist compounds 2, 6, 7, 8, 14, 17 and 32 were evaluated for anti-angiogenic activity using the Tube Formation kit (Cat#3470-096-K). VEGF (100ng/mL) was used as positive control. These compounds have potential applications in diseases associated with pathological angiogenesis such as solid tumor, […], diabetic retinopathy as well as AMD.

[7] = system: P. aeruginosa (ATCC-10145 GFP) infected skin wounds; assay: Murine study of skin wound infection; assay type: in vivo, C57BL6 mice
Experimental: Five groups of C57BL/6 mice (8-10 weeks old, n = 4) were wounded on the dorsal surface. 25µl containing 10^6 CFU/mL P. aeruginosa in a PBS suspension were pipetted onto the wound and allowed to absorb for at least 3 min. […] Subsequently and for the next 13 days, infected wounds were treated each alternate day with colistin, or with test compounds.
Along with that less focal inflammation is observed in compound treated groups vs PA group.

[8] = system: hyperoxia-induced lung injury in mice; assay: Hyperoxia induced ALI model; assay type: in vivo, C57BL/6 mice
Experimental: Male C57BL/6 mice (Jackson Laboratories,) 12-15 weeks old, 25 - 28 gms, housed up to 5 per cage were used.
Hyperoxia induced ALI model: The ARDS model consists of exposing adult mice in 100% oxygen for 48h followed by injecting with test compounds. Adult mice (N=5) were housed in plexi chamber with a constant and continuous supply of 100% oxygen for 48h. […] The mice were sacrificed after 48 h to harvest lung tissues and collect (BAL) fluid.

[9] = biological target: T3, TLR4 (Homo sapiens, UniProt O00206); assay: TLR4 modulation: IL-1β ELISA in hPBMC, alone or with TLR4 ligand LPS; assay type: cell-based; parameters: endogenous in cells
T3 sequence (O00206 24-839): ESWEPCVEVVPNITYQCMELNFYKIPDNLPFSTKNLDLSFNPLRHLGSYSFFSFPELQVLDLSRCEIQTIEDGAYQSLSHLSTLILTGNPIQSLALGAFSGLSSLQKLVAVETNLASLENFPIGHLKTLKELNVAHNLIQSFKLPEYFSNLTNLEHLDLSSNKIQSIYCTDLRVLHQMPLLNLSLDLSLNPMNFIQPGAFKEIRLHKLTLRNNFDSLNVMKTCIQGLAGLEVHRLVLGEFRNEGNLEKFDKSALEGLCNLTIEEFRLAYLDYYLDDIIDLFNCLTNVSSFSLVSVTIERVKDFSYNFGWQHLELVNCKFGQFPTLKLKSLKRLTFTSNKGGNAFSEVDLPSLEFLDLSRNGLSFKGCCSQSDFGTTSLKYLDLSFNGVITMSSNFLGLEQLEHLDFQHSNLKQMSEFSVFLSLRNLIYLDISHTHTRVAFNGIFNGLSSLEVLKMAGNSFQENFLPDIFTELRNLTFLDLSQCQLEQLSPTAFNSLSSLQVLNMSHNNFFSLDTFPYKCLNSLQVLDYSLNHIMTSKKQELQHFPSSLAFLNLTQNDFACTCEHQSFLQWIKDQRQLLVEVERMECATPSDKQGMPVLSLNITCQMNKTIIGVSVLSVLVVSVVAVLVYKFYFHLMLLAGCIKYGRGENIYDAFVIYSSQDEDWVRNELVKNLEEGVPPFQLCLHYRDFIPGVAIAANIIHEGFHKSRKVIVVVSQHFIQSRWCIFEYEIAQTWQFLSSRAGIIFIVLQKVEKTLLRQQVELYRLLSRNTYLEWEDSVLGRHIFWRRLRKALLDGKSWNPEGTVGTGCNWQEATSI
T3 sequence (Q9Y6Y9 17-160 partner limits assumed): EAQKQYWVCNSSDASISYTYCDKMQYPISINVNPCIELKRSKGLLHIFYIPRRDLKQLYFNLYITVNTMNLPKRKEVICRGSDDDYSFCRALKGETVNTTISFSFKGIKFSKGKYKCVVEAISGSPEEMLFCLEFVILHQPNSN
From the text: Compound 8 modulates the TLR4 activities in a concentration dependent manner.

[10] = biological target: T3, TLR4; assay: TLR4 inhibitory and activating activity in THP-1 cells at low and high concentrations; assay type: cell-based; parameters: endogenous in cells; host or cells: THP-1 (human monocytic) cells

CC(=O)N[C@H]1[C@H](Oc2ccc([N+](=O)[O-])cc2)O[C@H](CO)[C@@H](O)[C@@H]1O [Compound 8, p-Nitrophenyl 2-acetamido-2-deoxy-β-D-glucopyranoside]
IL-10 protein level ([1]; 0.1 µM to <1 µM, alone or in combination with CL075, hPBMC, 24h, ELISA): downregulate | production of IL-1β ([1]; 1.0 µM, alone and in combination with CL075, hPBMC): significantly stimulated | IL-6 protein level ([2]; 0.1 µM to <1 µM, in combination with Pam3CSK4, hPBMC, 24h, ELISA): downregulate | production of IL-6 ([2]; 1.0, 10 and 100 µM, in combination with CL075, hPBMC): significantly stimulated | production of IFN-α [3]: downregulates | cytotoxicity in hPBMC (cell viability) [4]: not toxic | cytotoxicity in HUVECs (cell viability) [5]: not toxic | VEGF induced tube formation [6]: significantly decreased | CFU in tissues / bacterial counts ([7]; 13 days post infection, vs untreated control): decreased; also recorded: statistically significant reduction | Re-epithelialization and granulation tissue ([7]; H&E histology, day 13 post-injury, vs controls, p=0.050 (Colistin, compound 1), p=0.073 (compound 8)): borderline non-significant | closure of P. aeruginosa infected skin wounds ([7]; topical, each alternate day, day 13, compounds 100µM / 100µg /ml, Colistin 4µg/ml): effectively closed; also recorded: complete closure | protection against hyperoxia induced lung injury ([8]; IP 10 mg/kg, two doses, 100% oxygen 48h): significant protection | hyperoxia-induced lung inflammation ([8]; IP injection): ameliorated | IL-1β protein level ([9]; 0.1 µM to <1 µM, alone or in combination with LPS, 24h, ELISA): downregulate | production of IL-1β ([9]; 1.0 µM, alone and in combination with LPS): significantly stimulated | % inhibition over control TLR4 ([10]; Concentration 1-10 µM, THP-1 cells): +++ (+++ means that the % of inhibition or activation is in the range of 75-95%) | % activation over control TLR4 ([10]; Concentration 75-100 µM, THP-1 cells): ++ (++ means that the % of inhibition or activation is in the range of 25-75%) | TLR4 modulatory activity ([10]; summary in words): concentration dependent TLR4 modulatory activity
